Experiments:
[1] = system: Jurkat cells; experiment: Oxidative stress and early apoptosis (MitoSOX Red and annexin V, MitoStress Kit); format: cell-based, human
Source text: Changes in the mitochondrial membrane potential (ΔΨ) in Jurkat cells induced by treatment with the synthesized compounds were detected using MitoSOX Red, a positively charged probe that accumulates rapidly in mitochondria and as such can be used to detect superoxide/ROS production within mitochondria using fluorometry, microscopy, or flow cytometry. Live cells induced a low level of MitoSOX Red fluorescence, while cells with scattered mitochondrial membrane potential caused much higher MitoSOX Red fluorescence. Annexin V is a dye commonly used to detect early signs of apoptosis. […] Thus, using two different dyes, MitoSOX Red and annexin V (CF488A), in the FlowCellect™ MitoStress Kit (FCCH100109), we analyzed the mitochondrial membrane potential dissipation and associated apoptosis in Jurkat cells in response to the synthesized chatenaytrienins.
Therefore, simultaneous detection of mitochondrial superoxide generation (detected by MitoSOX Red membrane-penetrating dye) and expression of phosphatidylserine on the cell surface of apoptotic cells (assessed by binding of annexin V) in the same cell sample provides an accurate evaluation of the ability of the test compound to initiate oxidative stress in cell culture and induce apoptosis.

[2] = system: Jurkat cell lysates; experiment: Multiplex analysis of signaling, genotoxicity and early apoptosis proteins (MILLIPLEX MAP, Luminex); format: cell-based, human
Experimental: Multiplex analysis was performed according to a previously published method. MILLIPLEX®MAP technology is used to determine the total protein or phosphorylated protein levels of various biological analytes, such as kinases or signaling proteins, including CREB, ERK/MAP, p70 S6, p21, p38, PI3K/AKT/mTOR, JNK (A), p53, MDM2, Bcl-2/Bax, STAT3 and STAT5, Nf-kB, Caspase 3-8-9, JNK, ATM, Chk1, Chk2, and H2AX, in cell lysates using the Luminex® system ((MILLIPLEX Multi-Pathway Magnetic Bead 9-Plex—Cell Signaling Multiplex Assay kit, Merk, Germany). This MILLIPLEX®MAP technology provides an alternative to Western blotting and immunoprecipitation and has several important advantages, such as more accurate measurement of small amounts of protein and the elimination of analyte loss during sample preparation. The multiplex immunoassay (MILLIPLEX 48-680MAG; Merck Millipore, Germany) was performed in Millipore 96-well plates to detect changes in concentrations of phosphorylated and unphosphorylated proteins p53, MDM2, p21, p38, PI3K/AKT/mTOR, Bcl-2/Bax, STAT3 and STAT5, Nf-kB, Caspase 3 -8-9, CREB, ERK/MAP, p70 S6, JNK, ATM, Chk1, Chk2, and H2AX in Jurkat cell lysates.
The levels of phosphorylated and non-phosphorylated proteins were analyzed using MILLIPLEX® map technology to study the analytes in the same sample within a fairly short time. Various deviations in protein concentration due to external factors or detection errors that could affect the results of the experiment were thereby reduced to zero.
The expression of p53, MDM2, p21, p38, PI3K/AKT/mTOR, Bcl-2/Bax, STAT3 and STAT5, Nf-kB, Caspase 3-8-9, CREB, ERK/MAP, p70 S6, JNK, ATM, Chk1, Chk2, and H2AX proteins in lysate samples of Jurkat tumor cells were studied using Luminex technology with the MILLIPLEX® MAP 9-Plex Multi-Pathway 9-plex Magnetic Bead Kit. This bead-based assay involved color-coded fluorescent particles pre-coated with specific antibodies targeting 9 major kinases in signaling pathways.

[3] = system: T24 bladder cancer cells; parameters: method as in PMID 16154156; conditions: cited from earlier work
[4] = system: Jurkat tumor cell line; experiment: Assessment of cytochrome c loss (FlowCellect Cytochrome c Kit); format: cell-based, human; conditions: compound at CC50, incubation 3 h, anti-cytochrome c-FITC
Experimental: Quantification of cytochrome c release from mitochondria in apoptotic cells was presented to detect the mitochondrial pathway of apoptosis in cells using flow cytometry with the FlowCellect™ Cytochrome c Kit (FCCH100110). For this, cells were treated with FITC-conjugated antibodies against cytochrome c and control anti-IgG1-FITC, together with the use of an optimized fixation procedure, permeabilization, and blocking buffer (Luminex®, USA). […] Jurkat cells were incubated for 4 h with the synthesized substances at a concentration corresponding to their 24-h CC50 in a culture plate and assessed using the NovoCyte Penteon Flow Cytometer System (Agilent, 5301 Stevens Creek Blvd., Santa Clara, CA, USA). The obtained data were processed using NovoExpress® software (ACEA).

[5] = system: Jurkat cells; experiment: Detection of mitodamage: mitochondrial membrane potential and apoptosis (MitoSense Red, annexin V, 7-AAD); format: cell-based, human; conditions: compound at CC50, 4 h; for cells in late apoptosis (stained with 7-AAD): Jurkat; for Jurkat tumor cells with the Δψ dissipation phenomenon: MitoSense Red
Source text: The use of reagents MitoSense Red, annexin V, and 7-AAD in the Millipore FlowCellect™ MitoDamage Kit allowed us to gain information on early, mid, and late apoptosis with one simple assay. […] After this time, the cells were dissociated using an accutase solution, stained, and analyzed using the NovoCyte Penteon Flow Cytometer System (Agilent, 5301 Stevens Creek Blvd., Santa Clara, CA, USA), according to the manufacturer’s protocols for the FlowCellect™ MitoDamage Kit and FlowCellect™ Oxidative Stress Characterization Kit (Merck).
Detection of mitochondrial potential dissipation using MitoSense Red, annexin V, and 7-AAD provided a simultaneous measurement of three important parameters of the cell state within the same cell sample: the state of the mitochondrial potential (Δψ), detected by the membrane-penetrating MitoSense Red dye; the expression of phosphatidylserine on the cell surface of apoptotic cells, assessed by the binding of annexin V to externalized phosphatidylserine; and the binding of 7-AAD to DNA in cells in the late stages of apoptosis. Multiparametric evaluation of these indicators of cell viability made it possible to determine the correlation and relationship between oxidation dissipation and phosphorylation with apoptosis.

[6] = system: Hek293; experiment: Cytotoxicity assay (7-AAD viability, flow cytometry); format: cell-based, human; conditions: Hek293, conditionally normal line; ± standard error of the mean, 95% CI in parenthesis
Source text: (§1) Cells, including Jurkat E6.1 (human leukemic T cell lymphoblasts, catalogue no. 88042803), K562 (human chronic myelogenous leukemia cells, catalogue no. 89121407), U937 (human histiocytic lymphoma cells, catalogue no. 85011440), HL60 (human promyelocytic leukemia cells, catalog no. 98070106), HEK293 (human embryonic kidney cells with adenovirus, catalog no. 85120602), and human lung fibroblasts Ce (catalogue no. 90011883), were purchased from the European Collection of Authenticated Cell Cultures (UK Health Security Agency) and cultured according to standard protocols using sterile techniques. […] Cells were maintained in RPMI 1640 (Jurkat, K562, U937, and HL60) and DME M (fibroblast and HEK293) (Gibco) supplemented with […] glutamine, 10% FBS (Sigma), and 100 units/mL penicillin-streptomycin (Sigma). All types of cells were grown under an atmosphere of 5% CO2 at 37 °C. The cells were subcultured at 2–3-day intervals. Cells were then seeded in 24-well plates at 5 × 10^4 cells per well and incubated overnight. Jurkat, K562, U937, HL60, HEK293, and fibroblast cells were subcultured at 2-day intervals with a seeding density of 1 × 10^5 cells per well in 24-well plates in RPMI with 10% FBS.
(§2) Viability (live/dead) assessment was performed by staining cells with 7-AAD (7-aminoactinomycin D; Biolegend). After treatment, cells were harvested, washed 1–2 times with phosphate-buffered saline (PBS), and centrifuged at 400× g for 5 min. Cell pellets were resuspended in 200 µL of flow cytometry staining buffer (PBS without Ca^2+ and Mg^2+, 2.5% FBS) and stained with […] of 7-AAD staining solution for 15 min at room temperature in the dark. Samples were assessed using the NovoCyte Penteon Flow Cytometer System (Agilent, 5301 Stevens Creek Blvd., Santa Clara, CA, USA). Detection of 7-AAD emission was collected through a 675/30 nm filter in the FL4 channel.

[7] = system: Jurkat; experiment: as above; format: cell-based, human; conditions: ± standard error of the mean, 95% CI in parenthesis
Source text: as §1, §2

[8] = system: HL60; experiment: as above; format: cell-based, human; conditions: ± standard error of the mean, 95% CI in parenthesis
Source text: as §1, §2

[9] = system: K562; experiment: as above; format: cell-based, human; conditions: ± standard error of the mean, 95% CI in parenthesis
Source text: as §1, §2

[10] = system: U937; experiment: as above; format: cell-based, human; conditions: ± standard error of the mean, 95% CI in parenthesis
Source text: as §1, §2

[11] = system: Jurkat cells; experiment: Assessment of autophagy (anti-LC3/FITC, flow cytometry); format: cell-based, human; conditions: 0.5 CC50, 48 h
Source text: Autophagy is involved in various physiological processes and its changes are associated with the pathogenesis of diseases such as neurodegenerative diseases, cardiovascular complications, cancer, and infectious diseases, as well as with physiological processes such as innate and specific immunity, pathogen clearance, lymphocyte selection, antigen presentation, and production of immunoglobulins. Therefore, the determination of LC3 protein inside autophagosomes without the cytosolic form of LC3-I at the stage of selective cell permeability was measured using flow cytometry. Thus, using the FlowCellect™ LC3-GFP Reporter Autophagy Assay Kit (FCCH100170 and FCCH100181), flow cytometry allowed for a rapid assay that could be combined with other phenotypic and functional markers to characterize different cell populations.
Canonical autophagy is associated with the conversion of LC3 protein (an autophagosome marker) from the cytoplasmic form of LC3I to the lipid-bound form of LC3II, which is associated with the membranes of maturing autophagosomes. The autophagy process can be conveniently classified into several stages. First, induction and translocation of the cytoplasmic LC3 protein occur due to the influence of external stimuli (adverse environmental influences)—the process is initiated by external/internal stimuli (for example, nutrient depletion or hypoxia). Then, the formation of autophagosomes begins, which are double-membrane vesicles that include the LC3 protein. This protein regulates the fusion of autophagosomes and lysosomes. It exists in two fractions—cytoplasmic LC3-I and LC3-II, isolated in the autophagosomal membrane. The LC3-II protein fraction was specified in our work, as its detection is a reliable indicator of the processes of autophagy in the cell.

[12] = system: Fibroblasts (PCS-201-018); experiment: Cytotoxicity assay (7-AAD viability, flow cytometry); format: cell-based, human; conditions: normal fibroblasts; ± standard error of the mean, 95% CI in parenthesis

Row | Compound | cells with cytochrome c released into the cytoplasm (Negative gate) [4] [%] | cells in late apoptosis (stained with 7-AAD) [5] [%] | CC50 [6] [nM] | CC50 [7] [nM] | CC50 [8] [nM] | CC50 [9] [nM] | CC50 [10] [nM] | Jurkat tumor cells with the Δψ dissipation phenomenon [5] [%] | cells with autophagy (gate M3-2) [11] [%] | CC50 [12] [nM] | further results
1 | CCCCCC[C@H]1C(=O)O[C@H](C)[C@H](NC(=O)c2cccc(NC=O)c2O)C(=O)O[C@@H](C)[C@@H]1OC(=O)CC(C)C [antimycin, reference compound] | – | – | – | – | – | – | – | – | – | – | intact (live) cells in the sample ([1]; antimycin 100 µM, 4 h): 12.65%
2 | CCCCCCCCCCCC/C=C\CC/C=C\CCCCCCCCCCCCC1=C[C@H](C)OC1=O [muricadienin, reference compound] | – | – | – | – | – | – | – | – | – | – | expression of caspase-8 ([2]; 6 h and 12 h): did not significantly affect; concentration of p53 ([2]; after 12 h of incubation, versus control): significantly increased; levels of all types of kinase proteins (CREB, JNK, NFkB, p38, ERK1/2, Akt, p70S6K, STAT3, STAT5) ([2]; compound at CC50, 4 h, MFI versus intact cells): most pronouncedly reduced; cleaved caspase-9 ([2]; especially after 12 h, level exceeded control): promoted the accumulation; level of BAD protein ([2]; first 6 h, within 12 h began to increase again, not reaching control): decreased
3 | CCCCCC[C@H](O)CCC[C@H](O)[C@H]1CC[C@H]([C@H]2CC[C@H]([C@H](O)CCCCCCCCCCCCC3=C[C@H](C)OC3=O)O2)O1 [squamocin] | – | – | – | – | – | – | – | – | – | – | effect on cell cycle [3]: blocked cells in the G1 phase
4 | CN[C@@H]1C[C@H]2O[C@@](C)([C@@H]1OC)n1c3ccccc3c3c4c(c5c6ccccc6n2c5c31)C(=O)NC4 [staurosporine, reference compound] | 80.23 | 2.48 | – | – | – | – | – | – | – | – | –
5 | chatenaytrienin-3 [compound 3] | 41.99 | 17.01 | 780 ± 40 | 150 ± 40 | 140 ± 40 | 90 ± 10 | 180 ± 20 | 62.42 | 91.50 | 830 ± 50 | intact (live) cells in the sample ([1]; compound at CC50, 4 h): 9.9%
6 | chatenaytrienin-4 [compound 4] | 42.10 | 1.88 | 530 ± 10 | 160 ± 10 | 190 ± 20 | 130 ± 40 | 130 ± 50 | 53.51 | 56.09 | 980 ± 40 | cells demonstrating oxidative stress along with the marker of early apoptosis, annexin ([1]; compound at CC50, 4 h, MitoSOX Red and annexin V): 26.8%
